Laboratory results taken from ChEMBL document CHEMBL1687773 (Antimicrob Agents Chemother, 2010).
pEC50, pIC50, pKi: −log10 of the molar value. Active and inactive are the calls of the source. The rule behind the calls is not given here.

What was measured:
HepG2 = experiment: Inhibition of DNA synthesis in human HepG2 cells assessed as [3H]-thymidine incorporation at up to 10 uM; assay type: functional, cell-based
[1] = system: Human immunodeficiency virus 1; experiment: Ratio of EC50 for wild type HIV1 NL4-3 to EC50 for HIV1 NL4-3 harboring reverse transcriptase Y181I, Y188L mutant; assay type: functional
Homo sapiens [2] = organism: Homo sapiens; experiment: Inhibition of human L-type calcium channel diltiazem binding site at up to 10 uM
[3] = target: Adrenergic receptor alpha-2 (Homo sapiens) (UniProt P08913+P18825+P18089); experiment: Inhibition of human adrenergic alpha2 receptor at up to 10 uM
[4] = target: D(1A) dopamine receptor (Homo sapiens) (UniProt P21728); experiment: Inhibition of human dopamine D1 receptor at up to 10 uM
[5] = target: Beta-1 adrenergic receptor (Homo sapiens) (UniProt P08588); experiment: Inhibition of human adrenergic beta1 receptor at up to 10 uM
PBMC = experiment: Cytotoxicity against human PBMC cells by aqueous nonradioactive cell proliferation assay; assay type: cell-based
[6] = system: Human immunodeficiency virus 1; experiment: Ratio of EC50 for wild type HIV1 NL4-3 to EC50 for HIV1 NL4-3 harboring reverse transcriptase E233V mutant; assay type: functional
[7] = target: 5-hydroxytryptamine receptor 2A (Homo sapiens) (UniProt P28223); experiment: Inhibition of human 5-HT2A receptor at up to 10 uM
[8] = target: 5-hydroxytryptamine receptor 1B (Homo sapiens) (UniProt P28222); experiment: Inhibition of human 5-HT1B receptor at up to 10 uM
Homo sapiens [9] = organism: Homo sapiens; experiment: Inhibition of human tyrosine hydroxylase at up to 10 uM
[10] = target: Human immunodeficiency virus type 1 reverse transcriptase (Human immunodeficiency virus 1) (UniProt Q72547); experiment: Noncovalent binding affinity to wild type recombinant HIV1 HXB2 reverse transcriptase by protein X-ray crystallography analysis
[11] = system: Human immunodeficiency virus 1; assay type: functional, organism-based; settings: NL4-3, HeLaP4
[12] = system: Human immunodeficiency virus type 1 reverse transcriptase (Human immunodeficiency virus 1), Q72547 [P236L]; experiment: Inhibition of HIV1 histidine-tagged reverse transcriptase P236L mutant activity by primer extension assay
[13] = system: Human immunodeficiency virus 1; experiment: Ratio of EC50 for wild type HIV1 NL4-3 to EC50 for HIV1 NL4-3 harboring reverse transcriptase V106A mutant; assay type: functional
[14] = Ratio of CC30 for human HeLaP4 cells to EC90 for HIV1
[15] = system: Human immunodeficiency virus 1; experiment: Antiviral activity against HIV1 NL4-3 harboring reverse transcriptase V108I, E138K mutant infected in human SupT1 cells derived from 9 viral passages with lersivirine assessed as inhibition of viral replication after 21 days relative to drug sensitive HIV1 NL4-3; assay type: functional, SUP-T1
[16] = system: Human immunodeficiency virus 1; experiment: Ratio of EC50 for wild type HIV1 NL4-3 to EC50 for HIV1 NL4-3 harboring reverse transcriptase V108I mutant; assay type: functional
[17] = target: Acetylcholinesterase (Homo sapiens) (UniProt P22303); experiment: Inhibition of human acetylcholinesterase at up to 10 uM
[18] = system: Human immunodeficiency virus 1; experiment: Ratio of EC50 for wild type HIV1 NL4-3 to EC50 for HIV1 NL4-3 harboring reverse transcriptase K101E mutant; assay type: functional
[19] = system: Human immunodeficiency virus type 1 reverse transcriptase (Human immunodeficiency virus 1), Q72547 [M184V]; experiment: Inhibition of HIV1 histidine-tagged reverse transcriptase M184V mutant activity by primer extension assay
[20] = system: Human immunodeficiency virus 1; assay type: functional, organism-based; settings: NL4-3, HeLaP4; remark: listed apart in the source
[21] = system: Human immunodeficiency virus type 1 reverse transcriptase (Human immunodeficiency virus 1), Q72547 [K101E]; experiment: Inhibition of HIV1 histidine-tagged reverse transcriptase K101E mutant activity by primer extension assay
[22] = target: Human immunodeficiency virus type 1 reverse transcriptase (Human immunodeficiency virus 1, UniProt Q72547); experiment: Mixed non-competitive inhibition of HIV1 reverse transcriptase activity
[23] = system: Human immunodeficiency virus 1; experiment: Antiviral activity against HIV1 NL4-3 harboring reverse transcriptase V106A mutant infected in human HeLaP4 cells assessed as inhibition of viral replication after 5 days by beta-galactosidase reporter assay; assay type: functional, organism-based
[24] = system: Human immunodeficiency virus 1; experiment: Ratio of EC50 for wild type HIV1 NL4-3 to EC50 for HIV1 NL4-3 harboring reverse transcriptase Y181I mutant; assay type: functional
Homo sapiens [25] = organism: Homo sapiens; experiment: Inhibition of human Phosphodiesterase 3 at up to 10 uM
[26] = system: Human immunodeficiency virus 1; experiment: Antiviral activity against HIV1 NL4-3 harboring reverse transcriptase K103N mutant infected in human HeLaP4 cells assessed as inhibition of viral replication after 5 days by beta-galactosidase reporter assay; assay type: functional, organism-based; settings: Human immunodeficiency virus 1, NL4-3, HeLaP4, 120 h
[27] = system: Human immunodeficiency virus 1; experiment: Antiviral activity against HIV1 NL4-3 harboring reverse transcriptase Y181I mutant infected in human HeLaP4 cells assessed as inhibition of viral replication after 5 days by beta-galactosidase reporter assay; assay type: functional, organism-based
[28] = system: Human immunodeficiency virus 1; experiment: Antiviral activity against HIV1 NL4-3 infected in human MT2 cells assessed as inhibition of virus-induced cell death at 0.5 multiplicities of infection after 6 days; assay type: functional, organism-based; settings: Human immunodeficiency virus 1, NL4-3, MT2, 144 h
Homo sapiens [29] = organism: Homo sapiens; experiment: Inhibition of human L-type calcium channel verapamil binding site at up to 10 uM
Homo sapiens [30] = organism: Homo sapiens; experiment: Inhibition of human L-type calcium channel dihydropyridine binding site at up to 10 uM
[31] = target: Amine oxidase [flavin-containing] B (Homo sapiens, UniProt P27338); experiment: Inhibition of human MAO-B at up to 10 uM
[32] = target: Muscarinic acetylcholine receptor (Homo sapiens) (UniProt P20309+P08173+P11229+P08172+P08912); experiment: Inhibition of human non-selective muscarinic receptor at up to 10 uM; assay type: protein assay
[33] = system: Human immunodeficiency virus 1; assay type: functional, organism-based; settings: NL4-3, HeLaP4; remark: listed apart in the source
[34] = target: Human immunodeficiency virus type 1 reverse transcriptase (Human immunodeficiency virus 1, UniProt Q72547, K103N); experiment: Inhibition of HIV1 HXB2 reverse transcriptase K103N mutant activity by primer extension assay
[35] = target: Adenosine receptor A1 (Homo sapiens) (UniProt P30542); experiment: Inhibition of human adenosine A1 receptor at up to 10 uM
[36] = system: Human immunodeficiency virus 1; experiment: Ratio of EC50 for wild type HIV1 NL4-3 to EC50 for HIV1 NL4-3 harboring reverse transcriptase K103N mutant; assay type: functional
[37] = target: Opioid receptors; mu/kappa/delta (Homo sapiens) (UniProt P41145+P41143+P35372); experiment: Inhibition of human non-selective opioid receptor at up to 10 uM
[38] = system: Human immunodeficiency virus type 1 reverse transcriptase (Human immunodeficiency virus 1), Q72547 [F227L]; experiment: Inhibition of HIV1 histidine-tagged reverse transcriptase F227L mutant activity by primer extension assay
[39] = system: Human immunodeficiency virus 1; experiment: Ratio of EC50 for wild type HIV1 NL4-3 to EC50 for HIV1 NL4-3 harboring reverse transcriptase Y188C mutant; assay type: functional
[40] = system: Human immunodeficiency virus 1; experiment: Antiviral activity against HIV1 NL4-3 harboring reverse transcriptase E138K mutant infected in human HeLaP4 cells assessed as inhibition of viral replication after 5 days by beta-galactosidase reporter assay; assay type: functional, organism-based
[41] = system: Human immunodeficiency virus 1; experiment: Ratio of EC50 for wild type HIV1 NL4-3 to EC50 for HIV1 NL4-3 harboring reverse transcriptase L100I mutant; assay type: functional

Amine oxidase [flavin-containing] B, sequence (P27338 whole entry): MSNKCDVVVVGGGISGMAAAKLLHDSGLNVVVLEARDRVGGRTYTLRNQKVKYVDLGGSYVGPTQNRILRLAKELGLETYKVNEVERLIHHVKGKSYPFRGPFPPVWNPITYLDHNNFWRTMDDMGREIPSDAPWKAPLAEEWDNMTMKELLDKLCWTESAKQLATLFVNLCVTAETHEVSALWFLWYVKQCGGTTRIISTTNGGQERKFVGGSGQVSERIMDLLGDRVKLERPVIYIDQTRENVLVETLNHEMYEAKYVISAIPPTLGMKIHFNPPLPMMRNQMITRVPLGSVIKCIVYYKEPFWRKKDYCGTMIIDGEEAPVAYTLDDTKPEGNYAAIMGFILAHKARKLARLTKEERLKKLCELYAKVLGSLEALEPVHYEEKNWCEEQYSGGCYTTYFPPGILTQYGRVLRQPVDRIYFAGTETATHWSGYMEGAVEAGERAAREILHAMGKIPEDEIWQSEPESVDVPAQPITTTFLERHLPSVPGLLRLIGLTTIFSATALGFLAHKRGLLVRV
D(1A) dopamine receptor (Homo sapiens), sequence (P21728 whole entry): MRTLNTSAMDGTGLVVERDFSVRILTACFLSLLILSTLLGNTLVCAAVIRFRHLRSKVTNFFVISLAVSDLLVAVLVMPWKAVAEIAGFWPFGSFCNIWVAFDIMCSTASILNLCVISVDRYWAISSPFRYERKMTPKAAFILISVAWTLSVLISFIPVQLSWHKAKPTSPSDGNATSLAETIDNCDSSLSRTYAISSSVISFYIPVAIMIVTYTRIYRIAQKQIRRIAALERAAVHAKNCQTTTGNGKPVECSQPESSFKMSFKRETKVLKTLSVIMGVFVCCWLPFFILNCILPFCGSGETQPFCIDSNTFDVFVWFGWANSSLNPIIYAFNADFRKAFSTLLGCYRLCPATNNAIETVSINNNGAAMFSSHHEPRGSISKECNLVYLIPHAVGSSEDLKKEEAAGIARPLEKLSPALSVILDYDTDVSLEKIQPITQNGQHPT
5-hydroxytryptamine receptor 2A (Homo sapiens), sequence (P28223 whole entry): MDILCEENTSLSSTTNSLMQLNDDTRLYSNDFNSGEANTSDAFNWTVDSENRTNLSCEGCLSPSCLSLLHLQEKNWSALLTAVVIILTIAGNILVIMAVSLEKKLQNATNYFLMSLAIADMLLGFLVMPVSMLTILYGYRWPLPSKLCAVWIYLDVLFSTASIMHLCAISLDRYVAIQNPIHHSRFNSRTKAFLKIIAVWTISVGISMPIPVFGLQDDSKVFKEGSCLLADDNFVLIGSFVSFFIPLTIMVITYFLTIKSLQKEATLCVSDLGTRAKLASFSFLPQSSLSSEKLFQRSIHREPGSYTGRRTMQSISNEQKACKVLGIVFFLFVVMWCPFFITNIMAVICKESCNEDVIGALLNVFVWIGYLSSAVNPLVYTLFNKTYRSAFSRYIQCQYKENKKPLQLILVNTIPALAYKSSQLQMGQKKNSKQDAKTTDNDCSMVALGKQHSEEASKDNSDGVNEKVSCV
Beta-1 adrenergic receptor (Homo sapiens), sequence (P08588 whole entry, looked up): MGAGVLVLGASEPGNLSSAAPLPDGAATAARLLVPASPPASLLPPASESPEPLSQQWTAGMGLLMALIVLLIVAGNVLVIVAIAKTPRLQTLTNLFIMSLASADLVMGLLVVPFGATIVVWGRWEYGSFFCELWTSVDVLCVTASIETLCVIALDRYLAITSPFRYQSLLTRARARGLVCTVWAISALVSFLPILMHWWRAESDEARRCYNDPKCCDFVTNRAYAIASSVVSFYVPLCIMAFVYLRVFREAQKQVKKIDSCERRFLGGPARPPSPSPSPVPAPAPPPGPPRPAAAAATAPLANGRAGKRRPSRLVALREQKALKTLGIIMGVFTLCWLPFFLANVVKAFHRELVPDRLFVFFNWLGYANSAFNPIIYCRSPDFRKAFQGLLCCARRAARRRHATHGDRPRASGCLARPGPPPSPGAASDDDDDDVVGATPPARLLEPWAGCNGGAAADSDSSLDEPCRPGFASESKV
5-hydroxytryptamine receptor 1B (Homo sapiens), sequence (P28222 whole entry): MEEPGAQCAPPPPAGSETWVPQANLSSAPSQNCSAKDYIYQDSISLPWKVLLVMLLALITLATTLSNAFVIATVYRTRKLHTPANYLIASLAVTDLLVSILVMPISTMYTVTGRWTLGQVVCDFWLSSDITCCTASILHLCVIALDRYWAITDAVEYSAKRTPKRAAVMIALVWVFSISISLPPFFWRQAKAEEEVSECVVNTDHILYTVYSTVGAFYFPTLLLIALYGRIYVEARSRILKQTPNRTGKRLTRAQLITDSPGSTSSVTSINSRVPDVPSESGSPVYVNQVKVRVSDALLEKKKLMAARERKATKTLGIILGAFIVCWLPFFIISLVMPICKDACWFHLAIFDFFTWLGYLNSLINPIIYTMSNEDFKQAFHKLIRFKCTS
Opioid receptors; mu/kappa/delta (Homo sapiens), sequence (P35372 whole entry, looked up): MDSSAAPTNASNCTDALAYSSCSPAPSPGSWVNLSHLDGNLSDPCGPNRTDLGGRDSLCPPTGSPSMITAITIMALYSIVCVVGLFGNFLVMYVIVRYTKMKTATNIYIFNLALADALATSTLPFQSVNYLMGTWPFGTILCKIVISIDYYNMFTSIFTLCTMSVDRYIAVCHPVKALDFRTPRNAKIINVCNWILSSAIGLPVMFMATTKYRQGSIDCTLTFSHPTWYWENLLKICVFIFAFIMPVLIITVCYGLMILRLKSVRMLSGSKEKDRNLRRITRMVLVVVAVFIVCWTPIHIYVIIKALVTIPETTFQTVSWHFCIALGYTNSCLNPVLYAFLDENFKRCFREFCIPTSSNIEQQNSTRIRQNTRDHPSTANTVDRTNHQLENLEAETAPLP
Opioid receptors; mu/kappa/delta (Homo sapiens), sequence (P41143 whole entry, looked up): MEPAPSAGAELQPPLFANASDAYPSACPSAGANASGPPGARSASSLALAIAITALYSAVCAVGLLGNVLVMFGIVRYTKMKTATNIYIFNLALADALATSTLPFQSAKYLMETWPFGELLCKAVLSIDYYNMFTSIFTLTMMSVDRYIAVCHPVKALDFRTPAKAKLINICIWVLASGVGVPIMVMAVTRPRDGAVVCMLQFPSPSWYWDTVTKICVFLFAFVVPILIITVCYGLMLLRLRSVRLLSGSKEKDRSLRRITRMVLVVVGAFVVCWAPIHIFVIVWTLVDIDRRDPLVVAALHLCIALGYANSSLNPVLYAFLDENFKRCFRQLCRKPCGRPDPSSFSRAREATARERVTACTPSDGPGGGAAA
Opioid receptors; mu/kappa/delta (Homo sapiens), sequence (P41145 whole entry, looked up): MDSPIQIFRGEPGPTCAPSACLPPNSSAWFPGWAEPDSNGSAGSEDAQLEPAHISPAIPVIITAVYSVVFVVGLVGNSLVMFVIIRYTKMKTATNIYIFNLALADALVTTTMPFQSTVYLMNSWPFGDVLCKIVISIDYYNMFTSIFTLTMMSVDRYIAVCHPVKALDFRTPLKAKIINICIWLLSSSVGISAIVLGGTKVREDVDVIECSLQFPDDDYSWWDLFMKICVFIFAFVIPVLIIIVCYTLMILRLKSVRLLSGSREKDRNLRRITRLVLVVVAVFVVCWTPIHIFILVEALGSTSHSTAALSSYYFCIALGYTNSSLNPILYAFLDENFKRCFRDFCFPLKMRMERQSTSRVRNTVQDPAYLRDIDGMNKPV
Acetylcholinesterase (Homo sapiens), sequence (P22303 whole entry): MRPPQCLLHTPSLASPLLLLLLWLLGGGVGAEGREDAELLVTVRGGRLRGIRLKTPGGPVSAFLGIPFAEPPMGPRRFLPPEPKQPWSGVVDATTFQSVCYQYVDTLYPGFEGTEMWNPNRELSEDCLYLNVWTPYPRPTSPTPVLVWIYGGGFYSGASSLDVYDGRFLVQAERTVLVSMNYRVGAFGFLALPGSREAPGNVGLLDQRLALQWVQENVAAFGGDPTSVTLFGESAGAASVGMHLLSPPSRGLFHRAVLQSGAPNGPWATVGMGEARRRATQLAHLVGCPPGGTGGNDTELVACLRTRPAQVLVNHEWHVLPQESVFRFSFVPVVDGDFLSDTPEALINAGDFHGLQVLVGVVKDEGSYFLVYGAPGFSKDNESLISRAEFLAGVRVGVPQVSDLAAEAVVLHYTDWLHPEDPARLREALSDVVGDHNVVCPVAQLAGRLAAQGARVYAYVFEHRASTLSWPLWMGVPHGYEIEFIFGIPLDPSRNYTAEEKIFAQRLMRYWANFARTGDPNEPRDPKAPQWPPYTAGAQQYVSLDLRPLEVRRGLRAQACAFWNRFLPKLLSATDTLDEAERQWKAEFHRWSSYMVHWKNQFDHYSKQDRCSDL
Adenosine receptor A1 (Homo sapiens), sequence (P30542 whole entry): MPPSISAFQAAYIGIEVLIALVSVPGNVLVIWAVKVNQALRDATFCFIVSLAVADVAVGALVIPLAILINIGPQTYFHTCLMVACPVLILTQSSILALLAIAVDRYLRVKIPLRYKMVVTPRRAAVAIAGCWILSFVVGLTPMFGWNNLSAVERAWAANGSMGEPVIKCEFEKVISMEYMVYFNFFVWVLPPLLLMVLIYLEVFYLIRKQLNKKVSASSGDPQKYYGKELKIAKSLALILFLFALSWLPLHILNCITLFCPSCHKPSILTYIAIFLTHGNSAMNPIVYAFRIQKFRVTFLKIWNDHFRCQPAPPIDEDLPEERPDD

What does the source list for `CCc1nn(CCO)c(CC)c1Oc1cc(C#N)cc(C#N)c1` [LERSIVIRINE]?
inhibition (HepG2): inactive; Ratio EC50 [1]: 65; inhibition (Homo sapiens [2]): inactive; inhibition [3]: inactive; inhibition [4]: inactive; inhibition [5]: inactive; CC30 (PBMC): 96900 nM; Ratio EC50 [6]: 10; inhibition [7]: inactive; inhibition [8]: inactive; inhibition (Homo sapiens [9]): inactive; Activity [10]: Active; inhibition [11]: Active; inhibition [12]: Active; Ratio EC50 [13]: 10; Ratio [14]: >7092; fold change (FC) [15]: 14; Ratio EC50 [16]: 10; inhibition [17]: inactive; Ratio EC50 [18]: 10; inhibition [19]: Active; inhibition [20]: Active; inhibition [21]: Active; pKi [22]: 6.93; inhibition [23]: Active; Ratio EC50 [24]: 10; inhibition (Homo sapiens [25]): inactive; pEC50 [26]: 8.15; inhibition [27]: Active; pEC50 [28]: 9.30; inhibition (Homo sapiens [29]): inactive; inhibition (Homo sapiens [30]): inactive; inhibition (INH) [31]: Not Active; inhibition [32]: inactive; inhibition [33]: Active; pIC50 [34]: 6.67; inhibition [35]: inactive; Ratio EC50 [36]: 10; inhibition [37]: inactive; inhibition [38]: Active; Ratio EC50 [39]: 10; inhibition [40]: Active; Ratio EC50 [41]: 10
